Reference: patent publication US5326867A, “Pradimic acids, amides, and pradimicin derivatives” (Bristol-Myers Squibb Company, priority 1992, dated 1994)
Values after ≈ are worked out from the molar mass of the structure shown.

How the values were obtained:
Type in all cases: cell-based
Cryptococcus neoformans = test: In vitro antifungal activity, MIC by serial agar dilution method; details: Sabouraud dextrose agar, 10^6 cells/ml, 40 hours at 28° C.
Experimental: (§1) Antifungal activities of representative compounds of the present invention were evaluation in vitro. The minimum inhibitory concentrations (MICs) against various fungi were determined by serial agar dilution method using Sabouraud dextrose agar. Thus, approximately 0.003 ml of fungal suspension containing 10^6 cells/ml was applied to the surface of agar plates containing the test antibiotics.

Aspergillus fumigatus = test: as above; details: Sabouraud dextrose agar, 10^6 cells/ml, 40 hours at 28° C.
Experimental: as §1

Candida albicans = test: as above; details: Sabouraud dextrose agar, 10^6 cells/ml, 40 hours at 28° C.
Experimental: as §1

[1] = tested on: Trichophyton mentagrophytes; test: as above; details: Sabouraud dextrose agar, 10^6 cells/ml, 40 hours at 28° C.
Experimental: as §1

fungi = test: Antifungal activity of synthesized pradimicin A compared with naturally occurring pradimicin A; details: semisynthetic product of Example 12 vs naturally occurring pradimicin A

SMILES | MIC (Cryptococcus neoformans) | MIC (Aspergillus fumigatus) | MIC (Candida albicans) | MIC [1] | antifungal activity (fungi)
CN[C@@H]1[C@H](O[C@@H]2OC[C@@H](O)[C@H](O)[C@H]2O)[C@@H](O)[C@H](O[C@H]2c3cc(C)c(C(=O)N[C@H](Cc4cnc[nH]4)C(=O)O)c(O)c3-c3c(cc4c(c3O)C(=O)c3cc(OC)cc(O)c3C4=O)[C@@H]2O)O[C@@H]1C [Example 19] | 12.5 µg/mL (≈ 13.8 µM) | 50 µg/mL (≈ 55.1 µM) | > 50 µg/mL | 12.5 µg/mL (≈ 13.8 µM) | –
COc1cc(O)c2c(c1)C(=O)c1c(cc3c(c1O)-c1c(cc(C)c(C(=O)N[C@@H](CO)C(=O)O)c1O)[C@H](O[C@@H]1O[C@H](C)[C@H](O)[C@H](O[C@@H]4OC[C@@H](O)[C@H](O)[C@H]4O)[C@H]1O)[C@H]3O)C2=O [Example 30] | 50 µg/mL (≈ 59.3 µM) | > 100 µg/mL | 12.5 µg/mL (≈ 14.8 µM) | > 100 µg/mL | –
COc1cc(O)c2c(c1)C(=O)c1c(cc3c(c1O)-c1c(cc(C)c(C(=O)N[C@@H](C(=O)O)[C@H](C)O)c1O)[C@H](O[C@@H]1O[C@H](C)[C@H](O)[C@H](O[C@@H]4OC[C@@H](O)[C@H](O)[C@H]4O)[C@H]1O)[C@H]3O)C2=O [Example 27, 15-Desalanyl-15-(D-threonyl) -4'-desmethylamino-4'-hydroxypradimicin A] | 6.3 µg/mL (≈ 7.34 µM) | 12.5 µg/mL (≈ 14.6 µM) | 12.5 µg/mL (≈ 14.6 µM) | 12.5 µg/mL (≈ 14.6 µM) | –
CN[C@@H]1[C@H](O[C@@H]2OC[C@@H](O)[C@H](O)[C@H]2O)[C@@H](O)[C@H](O[C@H]2c3cc(C)c(C(=O)N[C@H](CN)C(=O)O)c(O)c3-c3c(cc4c(c3O)C(=O)c3cc(OC)cc(O)c3C4=O)[C@@H]2O)O[C@@H]1C [Example 15] | 6.3 µg/mL (≈ 7.36 µM) | 6.3 µg/mL (≈ 7.36 µM) | 25 µg/mL (≈ 29.2 µM) | 6.3 µg/mL (≈ 7.36 µM) | –
CN[C@@H]1[C@H](O[C@@H]2OC[C@@H](O)[C@H](O)[C@H]2O)[C@@H](O)[C@H](O[C@H]2c3cc(C)c(C(=O)N[C@@H](CO)C(=O)O)c(O)c3-c3c(cc4c(c3O)C(=O)c3cc(OC)cc(O)c3C4=O)[C@@H]2O)O[C@@H]1C [Example 14] | 12.5 µg/mL (≈ 14.6 µM) | > 100 µg/mL | 12.5 µg/mL (≈ 14.6 µM) | > 100 µg/mL | –
CN[C@@H]1[C@H](O[C@@H]2OC[C@@H](O)[C@H](O)[C@H]2O)[C@@H](O)[C@H](O[C@H]2c3cc(C)c(C(=O)N[C@H](CCCCN)C(=O)O)c(O)c3-c3c(cc4c(c3O)C(=O)c3cc(OC)cc(O)c3C4=O)[C@@H]2O)O[C@@H]1C [Example 21] | 6.3 µg/mL (≈ 7.02 µM) | 6.3 µg/mL (≈ 7.02 µM) | 25 µg/mL (≈ 27.8 µM) | 6.3 µg/mL (≈ 7.02 µM) | –
CN[C@@H]1[C@H](O[C@@H]2OC[C@@H](O)[C@H](O)[C@H]2O)[C@@H](O)[C@H](O[C@H]2c3cc(C)c(C(=O)N[C@H](CC(=O)O)C(=O)O)c(O)c3-c3c(cc4c(c3O)C(=O)c3cc(OC)cc(O)c3C4=O)[C@@H]2O)O[C@@H]1C [Example 16] | 6.3 µg/mL (≈ 7.12 µM) | 50 µg/mL (≈ 56.5 µM) | 12.5 µg/mL (≈ 14.1 µM) | 12.5 µg/mL (≈ 14.1 µM) | –
CN[C@@H]1[C@H](O[C@@H]2OC[C@@H](O)[C@H](O)[C@H]2O)[C@@H](O)[C@H](O[C@H]2c3cc(C)c(C(=O)N[C@H](C)C(=O)O)c(O)c3-c3c(cc4c(c3O)C(=O)c3cc(OC)cc(O)c3C4=O)[C@@H]2O)O[C@@H]1C [pradimicin A] | – | – | – | – | identical to naturally occurring pradimicin A in spectroscopic data (NMR, IR, UV), HPLC and antifungal activity
CN[C@@H]1[C@H](O[C@@H]2OC[C@@H](O)[C@H](O)[C@H]2O)[C@@H](O)[C@H](O[C@H]2c3cc(C)c(C(=O)N[C@H](Cc4ccc(O)c(O)c4)C(=O)O)c(O)c3-c3c(cc4c(c3O)C(=O)c3cc(OC)cc(O)c3C4=O)[C@@H]2O)O[C@@H]1C [Example 13, 15-Desalanyl-15-[D-(3,4-dihydroxyphenyl)alanyl] pradimicin A] | 25 µg/mL (≈ 26.3 µM) | > 50 µg/mL | > 50 µg/mL | 50 µg/mL (≈ 52.7 µM) | –

More lines, main results first:

MIC (Cryptococcus neoformans) | MIC (Aspergillus fumigatus) | MIC (Candida albicans) | MIC [1] | SMILES | antifungal activity (fungi)
3.1 µg/mL (≈ 3.64 µM) | 3.1 µg/mL (≈ 3.64 µM) | 6.3 µg/mL (≈ 7.4 µM) | 3.1 µg/mL (≈ 3.64 µM) | CN[C@@H]1[C@H](O[C@@H]2OC[C@@H](O)[C@H](O)[C@H]2O)[C@@H](O)[C@H](O[C@H]2c3cc(C)c(C(=O)NCc4nnn[nH]4)c(O)c3-c3c(cc4c(c3O)C(=O)c3cc(OC)cc(O)c3C4=O)[C@@H]2O)O[C@@H]1C [Example 20] | –
1.6 µg/mL (≈ 1.75 µM) | 6.3 µg/mL (≈ 6.87 µM) | > 100 µg/mL | 12.5 µg/mL (≈ 13.6 µM) | CN[C@@H]1[C@H](O[C@@H]2OC[C@@H](O)[C@H](O)[C@H]2O)[C@@H](O)[C@H](O[C@H]2c3cc(C)c(C(=O)N[C@H](Cc4ccccc4)C(=O)O)c(O)c3-c3c(cc4c(c3O)C(=O)c3cc(OC)cc(O)c3C4=O)[C@@H]2O)O[C@@H]1C [Example 18] | –
3.1 µg/mL (≈ 3.28 µM) | 3.1 µg/mL (≈ 3.28 µM) | 25 µg/mL (≈ 26.5 µM) | 12.5 µg/mL (≈ 13.2 µM) | CCNC(=O)SC[C@@H](NC(=O)c1c(C)cc2c(c1O)-c1c(cc3c(c1O)C(=O)c1cc(OC)cc(O)c1C3=O)[C@H](O)[C@H]2O[C@@H]1O[C@H](C)[C@H](NC)[C@H](O[C@@H]2OC[C@@H](O)[C@H](O)[C@H]2O)[C@H]1O)C(=O)O [Example 23] | –
3.1 µg/mL (≈ 3.75 µM) | 3.1 µg/mL (≈ 3.75 µM) | 6.3 µg/mL (≈ 7.61 µM) | 3.1 µg/mL (≈ 3.75 µM) | COc1cc(O)c2c(c1)C(=O)c1c(cc3c(c1O)-c1c(cc(C)c(C(=O)N[C@H](C)C(=O)O)c1O)[C@H](O[C@@H]1O[C@H](C)[C@H](O)[C@H](O[C@@H]4OC[C@@H](O)[C@H](O)[C@H]4O)[C@H]1O)[C@H]3O)C2=O [Example 31] | –
3.1 µg/mL (≈ 3.17 µM) | 6.3 µg/mL (≈ 6.44 µM) | 6.3 µg/mL (≈ 6.44 µM) | 12.5 µg/mL (≈ 12.8 µM) | COc1cc(O)c2c(c1)C(=O)c1c(cc3c(c1O)-c1c(cc(C)c(C(=O)N[C@H](CSSC[C@@H](N)C(=O)O)C(=O)O)c1O)[C@H](O[C@@H]1O[C@H](C)[C@H](O)[C@H](O[C@@H]4OC[C@@H](O)[C@H](O)[C@H]4O)[C@H]1O)[C@H]3O)C2=O [Example 29] | –
3.1 µg/mL (≈ 3.46 µM) | 50 µg/mL (≈ 55.9 µM) | > 100 µg/mL | > 100 µg/mL | CN[C@@H]1[C@H](O[C@@H]2OC[C@@H](O)[C@H](O)[C@H]2O)[C@@H](O)[C@H](O[C@H]2c3cc(C)c(C(=O)NC(C(=O)O)C(F)(F)F)c(O)c3-c3c(cc4c(c3O)C(=O)c3cc(OC)cc(O)c3C4=O)[C@@H]2O)O[C@@H]1C (stereo partly drawn) [Example 17] | –
